According to publication PMC10002963, “[4+2]-Cycloaddition to 5-Methylidene-Hydantoins and 5-Methylidene-2-Thiohydantoins in the Synthesis of Spiro-2-Chalcogenimidazolones” (International Journal of Molecular Sciences, 2023):
≈ marks a conversion by molar mass, not a printed value. Read-outs that look alike come from different tables or passages of the source.

Columns and labels:
A549 cell line = assay: MTT cytotoxicity assay, A549; type: cell-based, human; conditions: A549, 65-h treatment, MTT, Cmax 100 µM
Protocol: (§1) Some of the obtained spiro-derivatives were tested for cytotoxicity using the standard MTT assay. Cytotoxicity was evaluated using the cell lines of various etiologies: breast cancer MCF7, human lung carcinoma A549, non-cancer human embryonic kidney cell line HEK293T, and non-cancer lung fibroblast VA13 cell line. Lung cancers and breast cancers are among the most common causes of tumor lesions and related death in the world, and non-cancerous cells were applied for the specificity of action evaluation. The results are shown in Table 5; the dose-response dependency graphs are available in Supplementary Information.
(§2) Cell cultures. Human embryonic kidney HEK293T cell line was kindly provided by Dr. E. Knyazhanskaya; immortalized human fibroblasts cell line VA13 was kindly provided by Dr. M. Rubtsova; human breast cancer cell line MCF7 and human lung adenocarcinoma cell line A549 were kindly provided by Dr. S. Dmitriev. MCF7, VA13, A549, and HEK293T cell lines were maintained in DMEM/F-12 (Thermo Fisher Scientific, Waltham, Massachusetts, USA) culture medium containing 10% fetal bovine serum (Thermo Fisher Scientific, Waltham, Massachusetts, USA) and 50 µg/mL penicillin and 0.05 mg/mL streptomycin at 37°C (Thermo Fisher Scientific, Waltham, Massachusetts, USA) in 5% CO2. Cells were maintained at 37°C in a humidified incubator MCO-18AC (Sanyo, Japan) supplied with 5% CO2. Cell cultures were tested for the absence of mycoplasma.
(§3) In Vitro Survival Assay (MTT Assay). The cytotoxicity was tested using the MTT (3-(4,5-dimethylthiazol-2-yl)2,5-diphenyl tetrazolium bromide) assay with some modifications. A total of 2500 cells per well for the MCF7, HEK293T cell lines, 3000 cells for the A549 cell line, or 4000 cells per well for the VA-13 cell line were plated out in 135 µL of DMEM-F12 media (Gibco, USA) in a 96-well plate and then incubated in the 5% CO2 incubator for first 20 h without treating. After this, 15 µL of media-DMSO solutions of tested substances were added to the cells (final DMSO concentrations in the media were 0,5% or less) and treated for65 h with 45 nM–100 µM (eight dilutions) of our substances (triplicate each) and doxorubicin as a control substance. Then the MTT reagent (Paneco LLC, Moscow, Russia) was added to cells up to the final concentration of 0.5 g/L (10 × stock solution in PBS was used), and cells were incubated for 2 h at 37 °C under an atmosphere of 5% CO2. Then the MTT solution was discarded, and 140 µL of DMSO (PharmaMed LLC, Russia) was added. The plates were swayed on a shaker (200 rpm) to dissolve the formazan. The absorbance was measured using a microplate reader (VICTOR ×5 Light Plate Reader, PerkinElmer, USA) at a wavelength of 555 nm (in order to measure formazan concentration). The results were used to construct dose-response graphs and to estimate IC50absvalues (IC50abs is the concentration resulting in a two-fold decrease in the number of cells in comparison with the untreated cells) and, in some cases, IC50 values (IC50 is the concentration resulting in half of the maximal cytotoxic effect) with GraphPadSoftware, Inc., San Diego, CA, USA.

MCF7 cell line = assay: MTT cytotoxicity assay, MCF7; type: cell-based, human; conditions: MCF7, 65-h treatment, MTT, Cmax 100 µM
Protocol: as §1, §2, §3

VA13 cell line = assay: MTT cytotoxicity assay, VA13; type: cell-based, human; conditions: VA13, 65-h treatment, MTT, Cmax 100 µM
Protocol: as §1, §2, §3

HEK293T cell line = assay: MTT cytotoxicity assay, HEK293T; type: cell-based, human; conditions: 65-h treatment, Cmax 100 µM, read-out: IC50abs
Protocol: as §1, §2, §3

E. coli K-12 (WT) = assay: Minimal inhibitory concentration, E. coli K-12; type: cell-based, Escherichia coli; conditions: LB medium, overnight 37°C, >1000 = inactive in this test
Protocol: (§4) Then the minimal inhibitory concentration (MIC) was measured for E. coli BW25113 DTC and E. coli K-12 (WT) for the 12 most bacteriotoxic compounds from the plate test.
(§5) Determination of Minimal Inhibitory Concentration (MIC). MIC values were determined by monitoring growth in 96-well plates of E. coli cultures exposed to serial dilutions of compounds. Specifically, overnight E. coli BW25113 DTC and K12 cultures were diluted in 96-well plates to an OD590 of 0.01 in LB medium. The wells were then supplemented with the solution of each tested compound at concentrations of 1 mM, 500 µM, 250 µM, 125 µM, 62.5 µM, 31.25 µM, 15.63 µM, 7.81 µM, 3.91 µM, and 1.95 µM. Then the plates were incubated with shaking (200 r.p.m.) overnight at 37°C, and cell growth was assessed by scanning OD590 each well with a VictorX5 reader.

E. coli BW25113 DTC = assay: Minimal inhibitory concentration, E. coli BW25113 DTC; type: cell-based, Escherichia coli
Protocol: as §4, §5

[1] = E. coli BW25113 DTC, LB medium, overnight 37°C, >1000 = inactive in this test
[2] = Homo sapiens, read-out: IC50abs
[3] = Homo sapiens, marked **, read-out: IC50abs, calculated by data extrapolation, exceeds Cmax
[4] = Homo sapiens, VA-13, read-out: IC50abs

Row | Compound | IC50 (A549 cell line; read-out: IC50abs) [µM] | IC50 (MCF7 cell line; read-out: IC50abs) [µM] | IC50 (VA13 cell line; read-out: IC50abs) [µM] | IC50 (HEK293T cell line; Homo sapiens, HEK-293T) [µM] | IC50 (A549 cell line; [2]) [µM] | IC50 (VA13 cell line; [4]) [µM] | MIC (E. coli K-12 (WT); Escherichia coli) [µM] | MIC (E. coli BW25113 DTC; Escherichia coli, BW25113) [µM] | IC50 (MCF7 cell line; [2]) [µM] | other results
1 | COc1ccc(N2C(=O)C3(CC4C=CC3C4)NC2=S)cc1 (stereo not shown) [Compound 39b] | > 100 | > 100 | > 100 | – | – | – | – | – | – | –
2 | O=C1NC2(C(=O)N1c1ccccc1)C1C=CC(C1)C2Br (stereo not shown) [Compound 40a] | > 100 | > 100 | > 100 | – | – | – | – | – | – | IC50 (HEK293T cell line): 56.4 ± 2.5 µM; MIC (E. coli K-12 (WT)): >1000 µM; MIC (E. coli BW25113 DTC; [1]): 1000 µM (≈ 333 µg/mL)
3 | O=C1NC2(C(=O)N1c1ccccc1)C1C=CC(C1)C2I (stereo not shown) [Compound 41a] | > 100 | > 100 | > 100 | – | – | – | – | – | – | IC50 (HEK293T cell line): 69.1 ± 4.8 µM; MIC (E. coli K-12 (WT)): >1000 µM; MIC (E. coli BW25113 DTC; [1]): 1000 µM (≈ 380 µg/mL)
4 | O=C1N(c2ccccc2)C(=S)NC12CC1C=CC2CC1 (stereo not shown) [Compound 45a] | – | – | – | 21.3 ± 2.3 | 85.2 ± 10.1 | > 100 | – | – | – | IC50 (MCF7 cell line; [3]): > 100 µM
5 | Cc1cccc(C)c1N1C(=O)C2(CC3C=CC2CC3)NC1=S (stereo not shown) [Compound 51a] | – | – | – | > 100 | > 100 | > 100 | > 1000 | > 1000 | > 100 | –
6 | COc1cccc(N2C(=O)C3(CCC(C)=C(C)C3)NC2=S)c1 (stereo not shown) [Compound 57] | – | – | – | 18.3 ± 1.7 | 35.4 ± 4.8 | 80.8 ± 13.7 | – | – | 50.6 ± 5.2 | –
7 | CC1=C(C)CC2(CC1)NC(=S)N(c1ccc(Cl)cc1)C2=O (stereo not shown) [Compound 59] | 26.2 ± 3.9 | 76.6 ± 16 | 52.6 ± 7.8 | – | – | – | – | – | – | IC50 (HEK293T cell line): 4.4 ± 0.6 µM
8 | CC1=C(C)CC2(CC1)NC(=S)N(c1ccc(F)c(Cl)c1)C2=O (stereo not shown) [Compound 62] | – | – | – | 6.8 ± 0.3 | 7.9 ± 0.4 | 9.8 ± 0.4 | > 1000 | 1000 (≈ 339 µg/mL) | 11.1 ± 0.6 | –
9 | CSC1=NC2(CC3C=CC2C3)C(=O)N1c1ccccc1 (stereo not shown) [Compound 72] | – | – | – | 60.1 ± 3.4 | > 100 | > 100 | > 1000 | 500 (≈ 142 µg/mL) | > 100 | –
10 | O=C1N[C@@]2(C[C@@H]3C=C[C@H]2C3)C(=O)N1c1ccccc1Cl [Compound 75] | – | – | – | 99 ± 11.1 | > 100 | > 100 | > 1000 | 500 (≈ 144 µg/mL) | > 100 | –
11 | Cc1cccc(N2C(=O)N[C@@]3(C[C@@H]4C=C[C@H]3C4)C2=O)c1 [Compound 76] | – | – | – | 48.6 ± 2.4 | – | – | > 1000 | 125 (≈ 33.5 µg/mL) | 86.4 ± 7.3 | IC50 (A549 cell line; [3]): > 100 µM; IC50 (VA13 cell line; Homo sapiens, VA-13, marked **, read-out: IC50abs, calculated by data extrapolation, exceeds Cmax): > 100 µM
12 | COc1cccc(N2C(=O)NC3(CCC(C)=C(C)C3)C2=O)c1 (stereo not shown) [Compound 77] | – | – | – | – | – | – | – | 125 (≈ 37.5 µg/mL) | – | –
